Data set [1] has as its system human neonatal skin fibroblast cells (Cryo NHDF-Neo). As to the kind of experiment: Antioxidant effect on oxidative damages induced by hydrogen peroxide (AlamarBlue viable cell ratio). The format is cell-based. To be noted: for antioxidant effect on hydrogen peroxide: conclusion in words. As to the method: (§1) For the evaluation of an antioxidant effect on hydrogen peroxide, human neonatal skin fibroblast cells (trade name: Cryo NHDF-Neo, manufactured by Sankyo Junyaku Co., Ltd.) were inoculated to a 24-well plate to have 1×10^5 cells per well. The cells were then cultured for four hours in a medium for cell culture (trade name: D-MEM (1 g/L glucose), manufactured by Wako Pure Chemical Industries) supplemented with 10% bovine fetal serum (herein below, referred to as a “standard medium”) in a 5% CO2 and saturated water vapor atmosphere at 37° C. (degrees Celsius). For the evaluation of an antioxidant effect on AAPH, antibiotics (penicillin, streptomycin, and fungizone) were supplemented to the standard medium and the cells were cultured for one day.
(§2) Subsequently, the culture medium was switched to a medium for cell culture (trade name: D-MEM (1 g/L glucose), manufactured by Wako Pure Chemicals Industries) supplemented with 0.5% bovine fetal serum (herein below, referred to as “low-serum medium”) to which 0.01% or 0.05% carnosine, or 0.1 μM (micro-molar) or 10 μM (micro-molar) D- or L-aspartic acid had been added, and the cells were cultured for two days under atmosphere of 5% CO2 and saturated moisture at 37° C. (degrees Celsius). For the experiment for the evaluation of oxidative damages on AAPH, the culture medium was switched to the medium for cell culture to which 5 ppm or 100 ppm carnosine, or 10 μM (micro-molar) D- or L-aspartic acid had been further added, and the cells were cultured for two days. The low-serum medium described above to which neither carnosine nor aspartic acid had been added was employed as a negative control.
(§3) After culturing for two days, 1 mM or 4 mM hydrogen peroxide, or 50 mM or 100 mM AAPH was added to the medium for evaluating an antioxidant effect, and the antioxidant effect was evaluated for carnosine or aspartic acid. The low-serum medium described above to which neither hydrogen peroxide nor AAPH had been added was employed as a control for evaluation of toxicity of an antioxidant when no oxidant was added.
(§4) Two hours after the addition of hydrogen peroxide or AAPH, AlarmarBlue (trade name: Biosource, manufactured by Biosource International Inc.) was added to have final concentration of 10%. Two to three hours later, according to the methods by Ahmed S. A. et al. (J. Immunol. Method., 170, 211-224 (1994)) and the instructions provided by the manufacturer, the fluorescent intensity of the supernatant was measured with an excitation wavelength of 544 nm, and an emission wavelength of 590 nm.

Data set [2] has the same test system. Description: Antioxidant effect on oxidative damages induced by AAPH (AlamarBlue viable cell ratio). The format is cell-based. To be noted: for antioxidant effect on AAPH: conclusion in words. As to the method: as §1, §2, §3, §4
[3] abbreviates: 1 mM hydrogen peroxide, test substance 0.1 μM.
Setting [4] is: 1 mM hydrogen peroxide, test substance 10 μM.
The mark [5] stands for this setting: 4 mM hydrogen peroxide, test substance 0.1 μM.
The mark [6] stands for this setting: 4 mM hydrogen peroxide, test substance 10 μM.
[7] abbreviates: without addition of an oxidant (toxicity control), test substance 0.1 μM.
[8] abbreviates: without addition of an oxidant (toxicity control), test substance 10 μM.
[9] abbreviates: 100 mM AAPH, test substance 10 μM.
[10] abbreviates: without addition of the oxidant (toxicity control), test substance 10 μM.

The structures appear in SMILES notation.

For the compound `NCCC(=O)N[C@@H](Cc1cnc[nH]1)C(=O)O` [carnosine, reference compound], the “ratio of viable cells” value worked out at 51% in data set [1] (1 mM hydrogen peroxide, test substance 0.01%); 53% in data set [1] (1 mM hydrogen peroxide, test substance 0.05%); 21% in data set [1] (4 mM hydrogen peroxide, test substance 0.01%); 45% in data set [1] (4 mM hydrogen peroxide, test substance 0.05%); 100% in data set [1] (without addition of an oxidant (toxicity control), test substance 0.01%); 97% in data set [1] (without addition of an oxidant (toxicity control), test substance 0.05%). Moreover, the “ratio of viable cells” value in data set [2] (100 mM AAPH, test substance 5 ppm) is 60%; in data set [2] (100 mM AAPH, test substance 100 ppm), 85%; in data set [2] (without addition of an oxidant (toxicity control), test substance 5 ppm), 93%; in data set [2] (without addition of an oxidant (toxicity control), test substance 100 ppm), 103%. In data set [1], the “antioxidant effect on hydrogen peroxide” value was “confirmed”. Besides, in data set [2], the “antioxidant effect on AAPH” value is listed as “confirmed”.
Regarding `N[C@H](CC(=O)O)C(=O)O` [D-aspartic acid], the “ratio of viable cells” value in data set [1] (setting [3]) came to 62%; in data set [1] (setting [4]) it was 63%; in data set [1] (setting [5]), 29%; in data set [1] (setting [6]) it was 34%; in data set [1] (setting [7]), 86%; in data set [1] (setting [8]), 97%. Further, the results for the “ratio of viable cells” value in data set [2] (setting [9]) and in data set [2] (setting [10]) were 96% and 102%, respectively. In data set [1], the “antioxidant effect on hydrogen peroxide” value is recorded as “concentration-dependent antioxidant effect”. Also, the “antioxidant effect on AAPH” value in data set [2] is listed as “more potent antioxidant effect on AAPH compared to L-aspartic acid”.
With `N[C@@H](CC(=O)O)C(=O)O` [L-aspartic acid], the “ratio of viable cells” value is 62% in data set [1] (setting [3]); 62% in data set [1] (setting [4]); 33% in data set [1] (setting [5]); 32% in data set [1] (setting [6]); 88% in data set [1] (setting [7]); 97% in data set [1] (setting [8]). Moreover, the “ratio of viable cells” value in data set [2] (setting [9]) stood at 69%; in data set [2] (setting [10]), 80%. In data set [1], the “antioxidant effect on hydrogen peroxide” value is recorded as “not observed”. Further, in data set [2], the “antioxidant effect on AAPH” value is on record as “antioxidant effect on AAPH only”.

The record behind these values is patent publication US8962684B2, “Antioxidant composition” (Shiseido Company, Ltd., priority 2009, dated 2015).
